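Following 48 hours of exposure in 96-well plates, responses at five concentrations were used to interpolate endpoints linearly. GI50 = concentration required for 50% inhibition of growth. TGI: total growth inhibition.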
How the values were obtained:
Assay in all cases: NCI anticancer screen, dose series, 48 h
LOX IMVI melanoma = test system: LOX IMVI melanoma
SK-MEL-28 melanoma = test system: SK-MEL-28 melanoma
SNB-19 CNS = test system: SNB-19 CNS
OVCAR-5 ovarian = test system: OVCAR-5 ovarian
TK-10 renal = test system: TK-10 renal
MALME-3M melanoma = test system: MALME-3M melanoma
SK-OV-3 ovarian = test system: SK-OV-3 ovarian
HS 578T breast = test system: HS 578T breast
CAKI-1 renal = test system: CAKI-1 renal
A549 NSCLC = test system: A549 NSCLC
SF-539 CNS = test system: SF-539 CNS
OVCAR-8 ovarian = test system: OVCAR-8 ovarian
SF-295 CNS = test system: SF-295 CNS
SK-MEL-2 melanoma = test system: SK-MEL-2 melanoma
MDA-MB-468 breast = test system: MDA-MB-468 breast
SF-268 CNS = test system: SF-268 CNS
BT-549 breast = test system: BT-549 breast
RPMI-8226 leukemia = test system: RPMI-8226 leukemia
OVCAR-3 ovarian = test system: OVCAR-3 ovarian
UACC-257 melanoma = test system: UACC-257 melanoma
OVCAR-4 ovarian = test system: OVCAR-4 ovarian
HCT-116 colon = test system: HCT-116 colon
CCRF-CEM leukemia = test system: CCRF-CEM leukemia
SK-MEL-5 melanoma = test system: SK-MEL-5 melanoma
RXF 393 renal = test system: RXF 393 renal
U251 CNS = test system: U251 CNS
NCI/ADR-RES ovarian = test system: NCI/ADR-RES ovarian
NCI-H522 lung = test system: NCI-H522 lung
ACHN renal = test system: ACHN renal
NCI-H460 lung = test system: NCI-H460 lung
HCT-15 colon = test system: HCT-15 colon
M14 melanoma = test system: M14 melanoma
MDA-MB-231 breast = test system: MDA-MB-231 breast
COLO 205 colon = test system: COLO 205 colon
HT29 colon = test system: HT29 colon
SN12C renal = test system: SN12C renal
MCF7 breast = test system: MCF7 breast
HL-60(TB) leukemia = test system: HL-60(TB) leukemia
UACC-62 melanoma = test system: UACC-62 melanoma
NCI-H23 lung = test system: NCI-H23 lung
DU-145 prostate = test system: DU-145 prostate
K-562 leukemia = test system: K-562 leukemia
SNB-75 CNS = test system: SNB-75 CNS
HOP-62 NSCLC = test system: HOP-62 NSCLC
NCI-H226 lung = test system: NCI-H226 lung
MDA-MB-435 = test system: MDA-MB-435
EKVX NSCLC = test system: EKVX NSCLC
KM12 colon = test system: KM12 colon
MOLT-4 leukemia = test system: MOLT-4 leukemia
A498 renal = test system: A498 renal
T-47D breast = test system: T-47D breast
UO-31 renal = test system: UO-31 renal
HCC-2998 colon = test system: HCC-2998 colon
786-0 renal = test system: 786-0 renal
HOP-92 NSCLC = test system: HOP-92 NSCLC
SW-620 colon = test system: SW-620 colon
PC-3 prostate = test system: PC-3 prostate
IGROV1 ovarian = test system: IGROV1 ovarian

**Q.** Which results are given for `COc1ccc(-c2cc(C(=O)N=Nc3c(O)[nH]c4ccc(Cl)cc34)c3ccccc3n2)cc1`?
**A.** GI50 (LOX IMVI melanoma): 3.23 µM; TGI (LOX IMVI melanoma): 13.3 µM; GI50 (SK-MEL-28 melanoma): 14.7 µM; TGI (SK-MEL-28 melanoma): 30 µM; GI50 (SNB-19 CNS): 17.4 µM; TGI (SNB-19 CNS): 32 µM; GI50 (OVCAR-5 ovarian): 12.2 µM; TGI (OVCAR-5 ovarian): 26.4 µM; GI50 (TK-10 renal): 23.9 µM; TGI (TK-10 renal): 42.3 µM; GI50 (MALME-3M melanoma): 14.4 µM; TGI (MALME-3M melanoma): 28.5 µM; GI50 (SK-OV-3 ovarian): 15.8 µM; TGI (SK-OV-3 ovarian): 33.1 µM; GI50 (HS 578T breast): 16.6 µM; TGI (HS 578T breast): 69.2 µM; GI50 (CAKI-1 renal): 11.7 µM; TGI (CAKI-1 renal): 26.4 µM; GI50 (A549 NSCLC): 5.56 µM; TGI (A549 NSCLC): 31.9 µM; GI50 (SF-539 CNS): 15.5 µM; TGI (SF-539 CNS): 29.8 µM; GI50 (OVCAR-8 ovarian): 10.2 µM; TGI (OVCAR-8 ovarian): 35.9 µM; GI50 (SF-295 CNS): 13.7 µM; TGI (SF-295 CNS): 29.4 µM; GI50 (SK-MEL-2 melanoma): 19.3 µM; TGI (SK-MEL-2 melanoma): 35.8 µM; GI50 (MDA-MB-468 breast): 6.78 µM; TGI (MDA-MB-468 breast): 25.9 µM; GI50 (SF-268 CNS): 16.2 µM; TGI (SF-268 CNS): 37.6 µM; GI50 (BT-549 breast): 22 µM; TGI (BT-549 breast): 43 µM; GI50 (RPMI-8226 leukemia): 14.7 µM; TGI (RPMI-8226 leukemia): > 100 µM; GI50 (OVCAR-3 ovarian): 11.8 µM; TGI (OVCAR-3 ovarian): 26.4 µM; GI50 (UACC-257 melanoma): 16.6 µM; TGI (UACC-257 melanoma): 32.6 µM; GI50 (OVCAR-4 ovarian): 13 µM; TGI (OVCAR-4 ovarian): 43.3 µM; GI50 (HCT-116 colon): 5.3 µM; TGI (HCT-116 colon): 63.7 µM; GI50 (CCRF-CEM leukemia): 3.32 µM; TGI (CCRF-CEM leukemia): > 100 µM; GI50 (SK-MEL-5 melanoma): 15.5 µM; TGI (SK-MEL-5 melanoma): 30.8 µM; GI50 (RXF 393 renal): 12.1 µM; TGI (RXF 393 renal): 25.7 µM; GI50 (U251 CNS): 3.57 µM; TGI (U251 CNS): 16.2 µM; GI50 (NCI/ADR-RES ovarian): 12 µM; TGI (NCI/ADR-RES ovarian): 47.3 µM; GI50 (NCI-H522 lung): 16.5 µM; TGI (NCI-H522 lung): 39.4 µM; GI50 (ACHN renal): 10.1 µM; TGI (ACHN renal): 23.2 µM; GI50 (NCI-H460 lung): 11.5 µM; TGI (NCI-H460 lung): 39.7 µM; GI50 (HCT-15 colon): 2.81 µM; TGI (HCT-15 colon): 10.2 µM; GI50 (M14 melanoma): 11 µM; TGI (M14 melanoma): 41.9 µM; GI50 (MDA-MB-231 breast): 5.13 µM; TGI (MDA-MB-231 breast): 18.1 µM; GI50 (COLO 205 colon): 15 µM; TGI (COLO 205 colon): 35.3 µM; GI50 (HT29 colon): 4.63 µM; TGI (HT29 colon): 31.2 µM; GI50 (SN12C renal): 13.9 µM; TGI (SN12C renal): 32 µM; GI50 (MCF7 breast): 5.32 µM; TGI (MCF7 breast): 28.2 µM; GI50 (HL-60(TB) leukemia): 9.57 µM; TGI (HL-60(TB) leukemia): > 100 µM; GI50 (UACC-62 melanoma): 14.8 µM; TGI (UACC-62 melanoma): 30.4 µM; GI50 (NCI-H23 lung): 6.43 µM; TGI (NCI-H23 lung): 30.8 µM; GI50 (DU-145 prostate): 15.3 µM; TGI (DU-145 prostate): 29.7 µM; GI50 (K-562 leukemia): 3.14 µM; TGI (K-562 leukemia): > 100 µM; GI50 (SNB-75 CNS): 12.9 µM; TGI (SNB-75 CNS): 27.6 µM; GI50 (HOP-62 NSCLC): 3.96 µM; TGI (HOP-62 NSCLC): 25.7 µM; GI50 (NCI-H226 lung): 14.3 µM; TGI (NCI-H226 lung): 55.1 µM; GI50 (MDA-MB-435): 14.8 µM; TGI (MDA-MB-435): 30.7 µM; GI50 (EKVX NSCLC): 11.4 µM; TGI (EKVX NSCLC): 27.1 µM; GI50 (KM12 colon): 21.6 µM; TGI (KM12 colon): 57.3 µM; GI50 (MOLT-4 leukemia): 3.88 µM; TGI (MOLT-4 leukemia): > 100 µM; GI50 (A498 renal): 21 µM; TGI (A498 renal): 36.1 µM; GI50 (T-47D breast): 11.8 µM; TGI (T-47D breast): 42.3 µM; GI50 (UO-31 renal): 11.5 µM; TGI (UO-31 renal): 24.1 µM; GI50 (HCC-2998 colon): 15 µM; TGI (HCC-2998 colon): 31.4 µM; GI50 (786-0 renal): 19.8 µM; TGI (786-0 renal): 43.7 µM; GI50 (HOP-92 NSCLC): 11.6 µM; TGI (HOP-92 NSCLC): 32.9 µM; GI50 (SW-620 colon): 3.09 µM; TGI (SW-620 colon): 19.4 µM; GI50 (PC-3 prostate): 12 µM; TGI (PC-3 prostate): > 100 µM; GI50 (IGROV1 ovarian): 13.1 µM; TGI (IGROV1 ovarian): 30.1 µM

Source: PubChem BioAssay (NCI)
